Usually MIC stands for the lowest concentration that inhibits growth of the organism. What is called solubility is the dissolved amount per volume that the medium holds.

Here are results for three molecules from paper PMC6311682, “Design, Synthesis, and Biological Evaluation of 2-Nitroimidazopyrazin-one/-es with Antitubercular and Antiparasitic Activity” (Journal of Medicinal Chemistry, 2018).

The test system of one data set is M. tuberculosis (H37Rv). Briefly: M. tuberculosis H37Rv resazurin reduction microplate MIC assay, hypoxic conditions (0.1% oxygen). The format is cell-based, Mycobacterium tuberculosis. The note with it: H37Rv, hypoxia (0.1% oxygen). A general note: The colour change of resazurin is a common sign of viable cells or microbes.
Data set [1] relates to L. donovani MHOM/IN/80/DD8 (ATCC50212). The data set is described as follows: L. donovani DD8 intracellular (THP-1) amastigote assay. The format is cell-based. The note with it: Leishmania donovani.
Data set [2] can be described thus: in vitro. The note with it: human.
The nature of data set [3]: Broth microdilution MIC assay, ESKAPE pathogens. The note with it: S. aureus, E. coli, K. pneumoniae, A. baumannii, P. aeruginosa; read-out: antibacterial MIC ESKAPE. It counts as cell-based. Background: Broth dilution looks for growth in wells or tubes with falling amounts of substance.
Data set [4] has as its system ESKAPE pathogens S. aureus (ATCC 43300), E. coli (ATCC 25922), K. pneumoniae (ATCC 700603), A. baumannii (ATCC 19606), P. aeruginosa (ATCC 27853). The data set is described as follows: Broth microdilution MIC assay, ESKAPE pathogens. The format is cell-based.
The nature of data set [5]: Mammalian cytotoxicity, liver HepG2 and kidney HEK293 cell lines stated together. The note with it: human.
A short description of data set [6]: Kinetic solubility determination by LC-UV. The note with it: room temperature, 1% DMSO.
In data set [7] the test system is C. difficile (630, ATCC BAA-1382). Briefly: Broth microdilution MIC assay, C. difficile. The format is cell-based, Clostridium difficile. The note with it: 630 ATCC BAA-1382, median MIC; for MIC: Clostridioides difficile, ATCCBAA1382, read-out: antibacterial MIC C. difficile.
Data set [8] relates to E. histolytica (HM1:IMSS). Briefly: ATP-bioluminescence cell growth and survival assay, E. histolytica trophozoites. The format is cell-based. The note with it: Entamoeba histolytica.
Data set [9] is described as follows: Mammalian cytotoxicity assay (resazurin), HEK293. The settings on record: human, HEK293 cells.
A short description of data set [10]: Mammalian cytotoxicity assay (resazurin), HepG2. The settings on record: human, HepG2 cells.
The nature of data set [11]: in vitro. The settings on record: human. The source holds these as a separate data set.
Data set [12] deals with C. albicans (ATCC 90028) and C. neoformans (H99, ATCC 208821). The data set is described as follows: Broth microdilution MIC assay, fungi. The format is cell-based.
Where [13] appears, read: read-out: antiparasitic IC50 L. donovani.
The mark [14] stands for this setting: read-out: antiparasitic pIC50 ± SE L. donovani (converted).
Where [15] appears, read: PBS, pH 7.4, Solubility µM (PBS), PBS pH 7.4, 24 h.
The mark [16] stands for this setting: water, Solubility µM (H2O), 24 h.

Like-named read-outs stand apart in the source and are kept apart here.

As for `O=c1c2nc([N+](=O)[O-])cn2ccn1Cc1ccccc1` [17b, 7-Benzyl-2-nitroimidazo[1,2-a]pyrazin-8(7H)-one], the “antibacterial MIC M. tuberculosis hypoxia” value with M. tuberculosis (H37Rv) fell in the range of 4.0 to 8.0 µg/mL. In addition, the IC50 in data set [1] (setting [13]) was > 80 µM; in [1] (setting [14]) it was > 79.4 µM. For the same molecule, the CC50 at 24 h in the data set “in vitro [2]” was 105 µM; in data set [5], 98 to 123 µM. Further, the MIC in data set [3] is > 32 µg/mL. Moreover, the “antibacterial MIC ESKAPE” value in data set [4] was > 32 µg/mL. Besides, the solubility at 24 h in data set [6] (setting [15]) and in [6] (setting [16]) was < 5 µM throughout.
In the case of `O=c1c2nc([N+](=O)[O-])cn2ccn1C1CCCCC1` [17t, 7-Cyclohexyl-2-nitroimidazo[1,2-a]pyrazin-8(7H)-one], the “antibacterial MIC C. difficile” value in data set [7] is >64 µg/mL. The MIC in [7] is > 64 µg/mL; in data set [3] it was > 32 µg/mL. Besides, the IC50 in data set [1] (setting [13]) was > 80 µM; in data set [1] (setting [14]), > 79.4 µM; in data set [8] (read-out: antiparasitic IC50 E. histolytica), > 50 µM; in data set [8] (read-out: antiparasitic pIC50 ± SE E. histolytica (converted)), > 50.1 µM. Besides, the “antibacterial MIC ESKAPE” value in [4] was >32 µg/mL. Also, the CC50 at 24 h in data set [9] was 112 µM; in data set [5] (HepG2 and HEK293 cells), 98 to 123 µM; in data set [10], 123 µM. Moreover, the solubility at 24 h in data set [6] (setting [15]) and in data set [6] (setting [16]) was < 10 µM each time.
`O=c1[nH]c(-c2ccccc2)cn2cc([N+](=O)[O-])nc12` [24a, 2-Nitro-6-phenylimidazo[1,2-a]pyrazin-8(7H)-one]: the CC50 in the data set “in vitro [11]” and in the data set “in vitro [2]” was > 100 µM in each case. Moreover, the “antibacterial MIC C. difficile” value in [7] was >64 µg/mL. For the same molecule, the MIC is > 64 µg/mL in data set [7]; > 32 µg/mL in data set [12] (Candida albicans, read-out: antifungal MIC); > 32 µg/mL in data set [3]. In data set [12], the “antifungal MIC” value was >32 µg/mL. In addition, the figures for the IC50 in data set [1] (setting [13]) and in data set [1] (setting [14]) were > 80 µM and > 79.4 µM, respectively. In [4], the “antibacterial MIC ESKAPE” value was >32 µg/mL.
